# Read-outs that look alike come from different tables or passages of the source.
# What was measured:
# [1] = test system: herpes simplex type 1 virus (HSV-1) (KOS); assay: Inhibition of HSV-1 cytopathogenicity in Vero cell culture; format: cell-based; settings: for IC50 HSV-1 (KOS): Vero cell culture, 50% inhibition of virus-induced cytopathogenicity, mean of duplicates, for 1:1 (W/W) mixtures IC50 refers to known antiviral drugs
# [2] = test system: herpes simplex type 2 virus (HSV-2) (G); assay: Inhibition of HSV-2 cytopathogenicity in Vero cell culture; format: cell-based; settings: 50% inhibition of cytopathogenicity, for 1:1 mixtures IC50 refers to known antiviral drugs
# [3] = test system: thymidine kinase-positive (TK+) varicella-zoster virus (YS); assay: Inhibition of TK+ VZV cytopathogenicity in Vero cell culture; format: cell-based; settings: Vero cell culture; 50% inhibition of cytopathogenicity; for 1:1 mixtures IC50 refers to known antiviral drugs
# [4] = test system: thymidine kinase-deficient (TK−) varicella-zoster virus (YS/R); assay: microbe, parasite or virus in culture; format: cell-based; settings: for IC50 TK−VZV (YS/R): Vero cell culture, 50% inhibition of cytopathogenicity, for 1:1 mixtures IC50 refers to known antiviral drugs
# [5] = test system: human cytomegalovirus (AD-169); assay: Inhibition of HCMV cytopathogenicity in Vero cell culture; format: cell-based; settings: for IC50 HCMV (AD-169): Vero cell culture, 50% inhibition of cytopathogenicity, for 1:1 mixtures IC50 refers to known antiviral drugs
# [6] = test system: HeLa cells
# [7] = test system: Vero cells
# [8] = molecular target: T1, calf mucosal adenosine deaminase (ADA, EC 3.5.4.4) (Bos taurus, UniProt P56658); assay: Substrate activity and competitive inhibition of adenosine deaminase; format: biochemical; settings: for rel. Vmax: compound as ADA substrate, relative to ara A 3 = 1.0
# T1 sequence (P56658 1-363): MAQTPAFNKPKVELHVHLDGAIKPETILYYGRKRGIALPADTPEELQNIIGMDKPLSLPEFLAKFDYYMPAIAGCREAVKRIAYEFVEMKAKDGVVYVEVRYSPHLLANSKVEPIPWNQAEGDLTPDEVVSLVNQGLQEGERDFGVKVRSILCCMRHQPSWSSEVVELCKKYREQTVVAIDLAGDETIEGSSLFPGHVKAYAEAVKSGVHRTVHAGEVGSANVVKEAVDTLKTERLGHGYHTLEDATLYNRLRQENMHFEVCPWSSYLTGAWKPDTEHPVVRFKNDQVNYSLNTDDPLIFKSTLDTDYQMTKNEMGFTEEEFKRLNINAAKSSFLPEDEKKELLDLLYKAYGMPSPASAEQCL
# [9] = molecular target: HSV thymidine kinase (Human herpesvirus 1, UniProt P0DTH5); assay: Phosphorylation of nucleosides by HSV thymidine kinase; format: biochemical
# Sequence of HSV thymidine kinase (P0DTH5 whole entry, looked up): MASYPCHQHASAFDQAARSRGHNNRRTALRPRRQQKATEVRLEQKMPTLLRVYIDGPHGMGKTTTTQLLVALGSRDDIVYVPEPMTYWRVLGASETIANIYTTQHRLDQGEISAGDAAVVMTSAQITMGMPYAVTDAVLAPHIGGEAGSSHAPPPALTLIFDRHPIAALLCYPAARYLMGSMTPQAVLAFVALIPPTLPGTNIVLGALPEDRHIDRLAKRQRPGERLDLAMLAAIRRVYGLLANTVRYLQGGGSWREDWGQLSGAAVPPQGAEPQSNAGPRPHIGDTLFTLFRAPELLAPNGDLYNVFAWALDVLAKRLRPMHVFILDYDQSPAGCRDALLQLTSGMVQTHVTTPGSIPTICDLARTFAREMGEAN
# [10] = test system: Vero cell thymidine kinase; assay: Phosphorylation of nucleosides by Vero cell thymidine kinase; format: biochemical
# [11] = Lipophilicity, 1-octanol/water partition coefficient
# [12] = Solubility in water (phosphate buffer, UV absorbance)
# [13] = test system: HIV-1 (IIIB); assay: microbe, parasite or virus in culture; format: cell-based; settings: Human immunodeficiency virus 1, IIIB, MT4, read-out: IC50 HIV-1 (IIIB)
# [14] = test system: HIV-2 (LAV-2); assay: Inhibition of HIV-2 cytopathogenicity in MT4 cells; format: cell-based, human immunodeficiency virus; settings: Human immunodeficiency virus 2, MT4, read-out: IC50 HIV-2 (LAV-2)
# [15] = test system: moloney murine sarcoma virus (MSV); assay: Inhibition of MSV cytopathogenicity in CEM cells (cell-protection assay); format: cell-based; settings: Moloney murine sarcoma virus, CCRF-CEM, read-out: IC50 MSV
# [16] = test system: HSV-1 (KOS); assay: Anti-HSV-1 activity in vivo, HSV-1-induced mortality in NMRI mice; settings: 6 days; for mean day of animal death / mean day of symptom initiation: terminated day 21; for responders at 100 mg/kg / responders at 150 mg/kg / responders at 250 mg/kg: Human alphaherpesvirus 1, ip, 504 h
# [17] = test system: Snake venom phosphodiesterase; assay: Activity of snake venom phosphodiesterase against nucleotide analogs; settings: pH 9.2, 37° C., 8 h
smiles,measurement,setting,value
"Nc1ncnc2ncn(COCCCl)c12 [Compound 12, 7-[(2-Chloroethoxy)methy]adenine]",IC50 HSV-1 (KOS),[1],>128 µg/mL
same,IC50 HSV-2 (G),[2],>128 µg/mL
same,IC50 TK+VZV (YS),[3],>128 µg/mL
same,IC50 TK−VZV (YS/R),[4],>128 µg/mL
same,IC50 HCMV (AD-169),[5],>128 µg/mL
same,"HeLa cell, concentration causing microscopically visible change or disruption in about 50% of the cell sheet",[6],169 µg/mL
same,"Vero cell, concentration causing microscopically visible change or disruption in about 50% of the cell sheet",[7],165 µg/mL
"Nc1ncnc2c1ncn2[C@@H]1O[C@H](CO)[C@@H](O)[C@@H]1O [ara A 3, 9-(β-D-arabinofaranosyl)adenine, reference compound]",rel. Vmax,[8],1.0
same,"rel. Vmax, HSV thymidine kinase",[9],<3.0
same,effect on the rate of phosphorylation of acyclovir 2 in words,[9]; mixture with acyclovir 2 (w/w=1:1),did not induce any increase
same,Km,"[10]; apparent Km, 37° C., pH 7.5",13 mM
same,"rel. Vmax, Vero cell thymidine kinase",[10]; relative to thymidine = 1.0 × 10^2,<3.0
same,IC50 HSV-1 (KOS),[1],8.8 µg/mL
same,IC50 HSV-2 (G),[2],>128 µg/mL
same,IC50 TK+VZV (YS),[3],>128 µg/mL
same,IC50 TK−VZV (YS/R),[4],>128 µg/mL
same,IC50 HCMV (AD-169),[5],27 µg/mL
same,"HeLa cell, concentration causing microscopically visible change or disruption in about 50% of the cell sheet",[6],73 µg/mL
same,"Vero cell, concentration causing microscopically visible change or disruption in about 50% of the cell sheet",[7],89 µg/mL
same,log P (1-octanol/water),"[11]; P = [substrate]1-octanol/[substrate]H2O, phosphate buffer 0.10 M",−0.50
same,solubility in water,"[12]; phosphate buffer 0.10 M, pH 6.8, agitated 20 h",480 µg/mL
"Nc1ncnc2c1ncn2[C@@H]1O[C@H](COP(=O)(O)O)[C@@H](OP(=O)(O)COCCn2cnc3ncnc(N)c32)[C@H]1O [Compound 24, 9-[5′-O-(phosphono)-β-D-furanosyl]adenine-3′-[[1-(adenin-7-yl-ethoxy)methyl]phosphonate]]",Vmax less than that of ara-A 3,[8]; ADA substrate,about 95%
same,type of ADA inhibition in words,[8]; ara-A used as substrate,competitive inhibition
same,rel. Vmax,[8],9.78 × 10^−2
same,Ki,[8]; inhibition of ADA with ara-A 3 as substrate,99.7 µM
same,IC50,"[1]; Human alphaherpesvirus 1, Vero, read-out: IC50 HSV-1 (KOS)",7 µg/mL
same,IC50,"[4]; Human alphaherpesvirus 3, Vero, read-out: IC50 TK−VZV (YS/R)",4.2 µg/mL
same,IC50,"[5]; Human betaherpesvirus 5, AD169, Vero, read-out: IC50 HCMV (AD-169)",11 µg/mL
same,IC50,[13],5.9 µg/mL
same,IC50,[14],6.4 µg/mL
same,IC50,[15],17 µg/mL
same,mean day of animal death,[16]; 100 mg/kg/day i.p.,19.5 ± 1.2 days
same,mean day of symptom initiation,[16]; 100 mg/kg/day i.p.,16.0 ± 1.7 days
same,protection against HSV-induced mortality,[16]; 150 mg/kg dose level i.p.,full protection
same,mean day of animal death,[16]; 150 mg/kg/day i.p.,>21 days
same,mean day of symptom initiation,[16]; 150 mg/kg/day i.p.,19.3 ± 1.6 days
same,mean day of animal death,[16]; 250 mg/kg/day i.p.,>21 days
same,mean day of symptom initiation,[16]; 250 mg/kg/day i.p.,>21 days
same,responders at 100 mg/kg,"[16]; 100 mg/kg/day i.p., read-out: percentage of HSV-1-infected mice alive at day 21 postinfection",90%
same,responders at 100 mg/kg,"[16]; 100 mg/kg/day i.p., read-out: percentage of HSV-1-infected mice without symptoms at day 21 postinfection",70%
same,responders at 150 mg/kg,"[16]; 150 mg/kg/day i.p., read-out: percentage of HSV-1-infected mice alive at day 21 postinfection",100%
same,responders at 150 mg/kg,"[16]; 150 mg/kg/day i.p., read-out: percentage of HSV-1-infected mice without symptoms at day 21 postinfection",85%
same,responders at 250 mg/kg,"[16]; 250 mg/kg/day i.p., read-out: percentage of HSV-1-infected mice alive at day 21 postinfection",100%
same,responders at 250 mg/kg,"[16]; 250 mg/kg/day i.p., read-out: percentage of HSV-1-infected mice without symptoms at day 21 postinfection",100%
same,logP at […],[11]; 1-octanol/phosphate buffer,0.12
same,solubility at 20 h,"[12]; 0.10 m phosphate buffer, pH 6.8, aqueous buffer, thermodynamic from solid",3080 µg/mL
same,yield of 5′-dephosphorylated product with snake venom phosphodiesterase,[17],about 80%

# Source: patent US6825348B2, “Antiviral compounds” (Academia Sinica, priority 2002, dated 2004)
